The values that follow are results of earlier work, collected in US20150045432A1, “DIETARY SUPPLEMENT COMPRISING AMINO ACIDS IN A PALATABLE LIQUID FORMULATION THAT PROMOTES RESTFUL SLEEP, RECOVERY FROM STRESS AND EXERCISE AND STRENGTHENS THE IMMUNE SYSTEM” (North Health Essentials, LLC, priority 2013, published 2015).

For data set [1] the following is noted: rats.
The conditions of data set [2]: 3 grams of glycine, bolus before bedtime.
The conditions of data set [3]: taken within an hour before going to bed, versus those who did not take the amino acid.
Setting [4] is: after 60 minutes of administration, compared to water or L-threonine.

Molecules are shown by their SMILES.

As to `NCCCC(=O)O` [GABA, gamma-aminobutyric acid], under setting [4], the alpha waves result is listed as “significantly increases alpha waves” and the beta waves entry is listed as “decreases beta waves”. For the same molecule, under “in vivo”, the “immunity under stress conditions” value is “could enhance immunity”. For the same molecule, the “time after administration within which relaxant effects could be seen” value (induce relaxation and diminish anxiety) was at most 1 h.
For `NCC(=O)O` [glycine], the “distribution in the brain” value in data set [1] is listed as “accumulates in the pineal gland”. For the same molecule, in data set [2], the daytime sleepiness result is listed as “lessened daytime sleepiness”; the “sleep quality and efficacy” value was “improved sleep quality and efficacy”. Also, the “brainwave patterns of non-REM sleep and sleep length” value in data set [3] was “showed brainwave patterns associated with non-REM sleep sooner and slept longer”.
